Calls of active or inactive are those of the source.
Legend:
[1] = molecular target: Trypsin (Sus scrofa, UniProt P00761); assay: porcine trypsin inhibitors, dose response, selectivity assay for Rce1 protease inhibitor project, biochemical, quenched peptide fluorescence, cherry-pick (AID 488789)
[2] = molecular target: CAAX prenyl protease 2 (Homo sapiens, UniProt Q9Y256); assay: human Rce1 protease inhibitors, dose response, biochemical, yeast membranes, quenched-peptide fluorescence, cherry-pick (AID 588849)
Chain of CAAX prenyl protease 2 (Homo sapiens, UniProt Q9Y256) (Q9Y256 whole entry): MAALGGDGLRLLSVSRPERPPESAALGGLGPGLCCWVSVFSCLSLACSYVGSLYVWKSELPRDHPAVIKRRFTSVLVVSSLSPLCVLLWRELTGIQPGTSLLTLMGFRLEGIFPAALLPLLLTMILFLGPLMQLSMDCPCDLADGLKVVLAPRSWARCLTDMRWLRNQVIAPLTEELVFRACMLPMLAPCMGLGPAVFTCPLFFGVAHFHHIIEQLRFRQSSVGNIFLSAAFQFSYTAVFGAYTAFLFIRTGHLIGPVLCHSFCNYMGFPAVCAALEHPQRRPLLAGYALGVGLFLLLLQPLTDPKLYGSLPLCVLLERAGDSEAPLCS

[3] = molecular target: X-box-binding protein 1 (Homo sapiens, UniProt P17861); assay type: functional, Cricetulus griseus;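 further: confirmatory dose-response counter-screen serving a CHOP assay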
Chain of X-box-binding protein 1 (P17861 whole entry): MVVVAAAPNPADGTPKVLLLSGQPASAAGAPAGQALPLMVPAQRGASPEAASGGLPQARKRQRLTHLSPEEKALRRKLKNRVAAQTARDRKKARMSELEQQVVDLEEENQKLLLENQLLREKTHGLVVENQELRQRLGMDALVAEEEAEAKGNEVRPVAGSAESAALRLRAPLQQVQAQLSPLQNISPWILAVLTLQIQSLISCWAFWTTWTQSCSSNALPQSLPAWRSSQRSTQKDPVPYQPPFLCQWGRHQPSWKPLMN

[4] = molecular target: CAAX prenyl protease 2 (Saccharomyces cerevisiae S288c, UniProt Q03530); assay type: biochemical
Chain of CAAX prenyl protease 2 (Saccharomyces cerevisiae S288c, UniProt Q03530) (Q03530 whole entry, the tested form may be a part): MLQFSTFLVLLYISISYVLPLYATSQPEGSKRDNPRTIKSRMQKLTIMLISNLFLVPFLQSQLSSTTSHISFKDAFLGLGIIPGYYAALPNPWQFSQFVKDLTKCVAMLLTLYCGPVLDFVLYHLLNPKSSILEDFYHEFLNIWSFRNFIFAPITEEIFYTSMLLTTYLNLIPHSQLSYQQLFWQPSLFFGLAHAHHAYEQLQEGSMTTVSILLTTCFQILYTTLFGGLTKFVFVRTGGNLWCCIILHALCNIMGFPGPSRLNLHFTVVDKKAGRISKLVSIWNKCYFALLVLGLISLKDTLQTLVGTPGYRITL

[5] = molecular target: Nucleotide-binding oligomerization domain-containing protein 2 (Homo sapiens, UniProt Q9HC29); assay: PubChem AID 2334; assay type: functional
Chain of Nucleotide-binding oligomerization domain-containing protein 2 (Q9HC29 whole entry, the tested form may be a part): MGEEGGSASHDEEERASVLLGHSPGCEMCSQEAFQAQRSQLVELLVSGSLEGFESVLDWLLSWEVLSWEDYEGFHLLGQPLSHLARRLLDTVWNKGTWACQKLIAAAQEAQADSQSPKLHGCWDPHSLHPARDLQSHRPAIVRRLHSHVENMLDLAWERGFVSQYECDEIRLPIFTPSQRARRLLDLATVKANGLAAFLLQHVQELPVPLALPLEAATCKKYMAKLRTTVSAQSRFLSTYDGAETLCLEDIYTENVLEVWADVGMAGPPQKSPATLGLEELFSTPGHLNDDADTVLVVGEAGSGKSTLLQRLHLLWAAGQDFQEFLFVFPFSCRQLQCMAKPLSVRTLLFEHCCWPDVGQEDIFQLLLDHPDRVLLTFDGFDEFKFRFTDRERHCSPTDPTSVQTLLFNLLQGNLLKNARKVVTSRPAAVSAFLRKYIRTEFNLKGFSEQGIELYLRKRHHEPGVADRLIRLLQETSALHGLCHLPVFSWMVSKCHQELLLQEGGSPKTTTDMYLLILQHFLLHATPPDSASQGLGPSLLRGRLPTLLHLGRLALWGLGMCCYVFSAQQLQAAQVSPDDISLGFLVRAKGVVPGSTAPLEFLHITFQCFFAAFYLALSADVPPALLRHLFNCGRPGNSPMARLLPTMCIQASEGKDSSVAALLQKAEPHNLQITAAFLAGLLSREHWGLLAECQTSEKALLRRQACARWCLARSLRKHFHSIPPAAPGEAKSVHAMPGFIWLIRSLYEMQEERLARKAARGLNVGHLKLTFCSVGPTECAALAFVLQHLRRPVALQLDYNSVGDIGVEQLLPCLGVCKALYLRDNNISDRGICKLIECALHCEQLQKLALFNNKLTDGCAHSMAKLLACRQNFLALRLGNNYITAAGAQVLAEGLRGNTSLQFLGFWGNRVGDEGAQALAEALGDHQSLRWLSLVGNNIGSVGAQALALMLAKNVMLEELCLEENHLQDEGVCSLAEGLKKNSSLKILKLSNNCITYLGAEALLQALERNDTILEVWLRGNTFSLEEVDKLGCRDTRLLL

[6] = molecular target: T1, Nucleotide-binding oligomerization domain-containing protein 1 (Homo sapiens, UniProt Q9Y239); assay: NOD1 signaling inhibitors, SAR follow-up, revised (AID 2333); assay type: functional
T1 sequence (Q9Y239 whole entry): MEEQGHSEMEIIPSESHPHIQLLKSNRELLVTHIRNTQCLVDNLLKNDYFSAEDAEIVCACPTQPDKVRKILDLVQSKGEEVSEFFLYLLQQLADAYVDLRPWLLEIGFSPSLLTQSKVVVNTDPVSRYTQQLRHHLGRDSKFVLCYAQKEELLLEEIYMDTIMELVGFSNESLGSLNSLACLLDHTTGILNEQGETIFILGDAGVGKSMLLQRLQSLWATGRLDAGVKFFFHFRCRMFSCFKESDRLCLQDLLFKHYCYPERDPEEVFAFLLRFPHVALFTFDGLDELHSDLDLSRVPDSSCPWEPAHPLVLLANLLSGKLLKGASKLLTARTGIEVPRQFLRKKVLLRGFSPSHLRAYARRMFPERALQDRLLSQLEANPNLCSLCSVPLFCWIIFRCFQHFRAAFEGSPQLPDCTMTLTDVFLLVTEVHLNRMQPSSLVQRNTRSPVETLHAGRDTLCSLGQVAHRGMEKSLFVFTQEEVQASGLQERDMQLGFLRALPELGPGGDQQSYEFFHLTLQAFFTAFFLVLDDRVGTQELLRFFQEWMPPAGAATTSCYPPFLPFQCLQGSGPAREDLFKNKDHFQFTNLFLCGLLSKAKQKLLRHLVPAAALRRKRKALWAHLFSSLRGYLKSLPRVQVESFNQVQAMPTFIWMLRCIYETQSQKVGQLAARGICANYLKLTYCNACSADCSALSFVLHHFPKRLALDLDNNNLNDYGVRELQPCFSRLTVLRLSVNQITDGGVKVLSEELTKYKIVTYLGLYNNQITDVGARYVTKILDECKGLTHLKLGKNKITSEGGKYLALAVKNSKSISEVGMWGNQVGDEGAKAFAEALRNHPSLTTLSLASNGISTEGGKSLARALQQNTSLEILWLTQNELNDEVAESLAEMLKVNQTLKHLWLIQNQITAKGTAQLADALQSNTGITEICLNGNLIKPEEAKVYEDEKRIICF

[7] = system: HEK293; assay: cells; details: Homo sapiens;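 further: cells exposed to compound for 14 hours overnight before viability readout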
[8] = molecular target: T2, Estrogen receptor (Homo sapiens, UniProt P03372); assay: potentiators of ERα–SRC-1 coactivator binding, dose response, biochemical, TR-FRET, ERα LBD (AID 737)
T2 sequence (P03372 whole entry): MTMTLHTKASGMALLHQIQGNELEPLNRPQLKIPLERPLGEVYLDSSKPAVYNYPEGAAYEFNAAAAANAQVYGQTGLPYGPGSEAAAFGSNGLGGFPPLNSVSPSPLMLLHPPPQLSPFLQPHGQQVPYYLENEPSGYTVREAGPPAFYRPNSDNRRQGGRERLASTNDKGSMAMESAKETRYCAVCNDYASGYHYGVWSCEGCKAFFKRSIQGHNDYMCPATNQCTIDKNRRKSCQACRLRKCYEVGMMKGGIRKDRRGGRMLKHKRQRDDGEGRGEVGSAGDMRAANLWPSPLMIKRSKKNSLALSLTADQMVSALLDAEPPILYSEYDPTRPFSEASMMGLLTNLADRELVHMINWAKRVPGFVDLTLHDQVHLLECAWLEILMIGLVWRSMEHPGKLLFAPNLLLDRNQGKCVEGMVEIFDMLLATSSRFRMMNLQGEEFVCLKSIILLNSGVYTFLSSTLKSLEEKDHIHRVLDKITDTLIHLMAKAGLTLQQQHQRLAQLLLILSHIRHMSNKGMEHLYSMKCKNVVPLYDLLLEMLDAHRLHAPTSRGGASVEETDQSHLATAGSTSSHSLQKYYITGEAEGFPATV

[9] = molecular target: Tumor necrosis factor (Homo sapiens, UniProt P01375); assay: TNFa-triggered NF-kB activation inhibitors, SAR follow-up, cell-based, revised (AID 2337); assay type: functional
Chain of Tumor necrosis factor (P01375 whole entry): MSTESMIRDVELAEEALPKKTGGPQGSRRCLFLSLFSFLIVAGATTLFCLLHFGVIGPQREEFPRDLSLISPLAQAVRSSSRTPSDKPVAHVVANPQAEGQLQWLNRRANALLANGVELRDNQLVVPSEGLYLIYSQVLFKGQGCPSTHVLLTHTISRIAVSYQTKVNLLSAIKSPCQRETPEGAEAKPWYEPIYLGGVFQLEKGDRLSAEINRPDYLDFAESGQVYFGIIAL

[10] = A Cell Based Secondary Assay To Explore Cytotoxicity of Compounds that Sensitize Mycobacterium Tuberculosis to Beta-Lactam Antibiotics.; assay type: functional
[11] = Luminescence Cell-Based Dose Response HTS to Identify Activators of 5'UTR Stem-Loop Driven Prion Protein mRNA Translation in H4-C Neuroglioblastoma Cells. [Related pubchem assays: 1829 (Project Summary), 1814 (Primary HTS)]; assay type: functional
[12] = molecular target: T3, RNA-binding protein pos-1 (Caenorhabditis elegans, UniProt G5EF15); assay: inhibitors of POS-1/mex-3 RNA binding, dose response, biochemical, fluorescence polarization (AID 1964);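 further: purified POS-1 fused to maltose binding protein made in E. coli; potency of compounds blocking POS-1 binding to fluorescent RNA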
T3 sequence (G5EF15 whole entry): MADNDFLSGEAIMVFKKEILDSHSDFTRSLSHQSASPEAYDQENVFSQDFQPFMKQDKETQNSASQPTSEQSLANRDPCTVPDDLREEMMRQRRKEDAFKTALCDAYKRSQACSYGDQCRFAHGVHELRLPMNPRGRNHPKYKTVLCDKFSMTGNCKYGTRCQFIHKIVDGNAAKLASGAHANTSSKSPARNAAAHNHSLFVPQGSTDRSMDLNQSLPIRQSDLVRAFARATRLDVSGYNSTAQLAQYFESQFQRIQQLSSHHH

[13] = Luminescence Cell-Based Dose Response HTS to Identify Activators of Luciferase Translation or Activity in H4-C Neuroglioblastoma Cells. [Related pubchem assays: 1829 (Project Summary), 1814 (Primary HTS)]; assay type: functional
[14] = system: Vero; assay: cells; assay type: functional; details: Chlorocebus sabaeus
[15] = molecular target: T4, Zinc finger protein mex-5 (Caenorhabditis elegans, UniProt Q9XUB2); assay: MEX-5/TCR-2 RNA interaction inhibitors, dose response, biochemical, C. elegans, fluorescence polarization (AID 1960)
T4 sequence (Q9XUB2 whole entry): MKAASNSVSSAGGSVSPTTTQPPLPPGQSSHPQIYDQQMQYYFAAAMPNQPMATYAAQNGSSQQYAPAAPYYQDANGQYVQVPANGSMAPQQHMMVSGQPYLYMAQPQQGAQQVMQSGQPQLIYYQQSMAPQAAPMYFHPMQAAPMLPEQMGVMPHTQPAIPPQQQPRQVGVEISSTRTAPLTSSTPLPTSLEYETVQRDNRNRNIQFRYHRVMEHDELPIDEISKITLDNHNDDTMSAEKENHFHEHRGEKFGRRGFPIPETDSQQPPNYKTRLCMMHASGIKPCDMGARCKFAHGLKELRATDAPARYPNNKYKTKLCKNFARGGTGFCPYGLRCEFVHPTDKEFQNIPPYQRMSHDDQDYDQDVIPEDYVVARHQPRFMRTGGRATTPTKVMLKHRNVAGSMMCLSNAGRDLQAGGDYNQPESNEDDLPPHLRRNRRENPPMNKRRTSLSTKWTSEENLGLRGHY

[16] = Luminescence Cell-Based Dose Confirmation HTS to Identify Activators of 5'UTR Stem-Loop Driven Alpha-Synuclein mRNA Translation in H4 Neuroglioblastoma Cells. [Related pubchem assays: 1829 (Project Summary), 1814 (Primary HTS)]; assay type: functional
[17] = Luminescence Cell-Based Dose Retest to Confirm Activators of 5'UTR Stem-Loop Driven Alpha-Synuclein mRNA Translation in H4 Neuroglioblastoma Cells. [Related pubchem assays (depositor defined):AID1813, AID1829]; assay type: functional
[18] = system: H4; assay: Luminescence Cell-Based Dose Response HTS to Identify Activators of 5'UTR Stem-Loop Driven Prion Protein mRNA Translation in H4 Neuroglioblastoma Cells. [Related pubchem assays: 1829 (Project Summary), 1814 (Primary HTS)]; assay type: functional; details: Homo sapiens
[19] = Luminescence Cell-Based Dose Response HTS to Identify Activators of Luciferase Translation or Activity in H4 […] Cells. [Related pubchem assays: 1829 (Project Summary), 1814 (Primary HTS)]; assay type: functional

Chain of Trypsin (P00761 whole entry): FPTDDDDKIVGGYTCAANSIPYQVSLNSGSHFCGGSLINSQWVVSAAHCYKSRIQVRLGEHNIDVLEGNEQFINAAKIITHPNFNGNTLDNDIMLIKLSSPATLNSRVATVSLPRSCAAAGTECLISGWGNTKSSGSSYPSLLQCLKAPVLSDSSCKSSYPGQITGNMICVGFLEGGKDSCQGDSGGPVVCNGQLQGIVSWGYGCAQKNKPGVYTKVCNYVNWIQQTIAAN

Cc1csc(NC(=O)c2ccccc2O)n1
AC50 [1]: > 100 µM (inactive) | AC50 [2]: 19.3 µM (active)

CCC(C)(C)NC(=O)C(c1cccn1C)N(C(=O)Cn1nnc2ccccc21)c1ccc(F)cc1 (centres undefined)
Absolute IC50 (XBP1) [3]: 10 µM

CS(=O)(=O)Nc1ccccc1C(=O)NC1CC2CCC1C2 (centres undefined)
AC50 [4]: 3.03 µM (active)

Cc1ccc(Cn2c(NC(=O)c3ccco3)nc3ccccc32)cc1
IC50 [5]: > 20 µM (inactive) | IC50 [6]: > 20 µM (inactive) | IC50 [7]: > 20 µM (inactive) | EC50 [8]: 14.6 µM (active) | IC50 [9]: > 20 µM (inactive) | CC50 [10]: 10.1 µM (active)

COc1cc(/C=C2/C(=O)ON=C2C)ccc1OCc1ccccc1F
EC50 [11]: 10.3 µM (active) | EC50 [12]: 60.2 µM (active) | EC50 [13]: 2.06 µM (active) | CC50 [14]: 22.3 µM (active) | EC50 [15]: > 300 µM (inconclusive) | EC50 [16]: 0.127 µM (active) | EC50 [17]: 0.901 µM (active) | EC50 [18]: > 120 µM (not active) | EC50 [19]: 39.6 µM (active)
